From ChEMBL document CHEMBL1126427, “Synthesis of a potent, reversible inhibitor of interleukin-1 converting enzyme” (Bioorg Med Chem Lett, 1992) come the findings set out here.

This assay has as its target T1, Caspase-1 (Homo sapiens, UniProt P29466).
T1 sequence (P29466 whole entry): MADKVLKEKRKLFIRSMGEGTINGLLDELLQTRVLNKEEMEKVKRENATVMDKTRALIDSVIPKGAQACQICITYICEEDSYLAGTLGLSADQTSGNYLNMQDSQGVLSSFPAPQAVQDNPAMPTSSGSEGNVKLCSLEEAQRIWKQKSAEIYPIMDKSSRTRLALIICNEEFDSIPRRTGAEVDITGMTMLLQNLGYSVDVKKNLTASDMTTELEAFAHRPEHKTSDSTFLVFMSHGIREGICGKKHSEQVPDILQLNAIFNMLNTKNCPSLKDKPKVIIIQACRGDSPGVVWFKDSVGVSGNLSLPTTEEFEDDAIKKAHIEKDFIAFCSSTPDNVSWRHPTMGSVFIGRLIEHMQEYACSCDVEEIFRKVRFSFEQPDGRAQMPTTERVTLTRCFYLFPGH
Briefly: The compound was tested for inhibition of IL-1 beta converting enzyme in whole human blood.

A word on the Ki: it is a dissociation constant, usually derived from enzyme kinetics or from competition with a known ligand. A low value points to higher affinity. Regarding `CC(=O)N[C@@H](Cc1ccc(O)cc1)C(=O)N[C@H](C(=O)N[C@@H](C)C(=O)N[C@H](C=O)CC(=O)O)C(C)C`, affinity was put at a Ki of 0.76 nM.
